Consider 2 molecules from patent US20240189277A1, “OPHTHALMIC FORMULATIONS FOR SUSTAINED NEUROPROTECTION” (priority 2021, published 2024).

The subject of one series is primary mouse RGCs. The series is described as follows: Retinal ganglion cell (RGC) viability assay (CellTiter-Glo). The format is cell-based. To be noted: concentrations as high as 10 mg/mL; with 1 μM sunitinib malate; 72 h. As for the experimental part: Mouse RGCs were purified as described ny Welsbie, D. S., et al., Proceedings of the National Academy of Sciences of the United States of America, 2013. 110(10): p. 4045-4050. Purified cells were plated on a poly-D-lysine/laminin coated 384-well culture dish at 4,000 cells per well and cultured in Neurobasal media supplemented with B-27, N-2, L-glutamine, and penicillin/streptomycin. Sunitinib malate (1 μM) was dissolved in dimethyl sulfoxide (DMSO) and added at the same time cells were plated (250 nL into 50 μL of media) to promote RGC survival. Then, either PBS or different volumes of sodium pamoate dissolved in DMSO was added at the concentrations indicated (0.1, 1, 10 mg/mL) to determine whether there was any effect on RGC survival. A PBS control was included for each pamoic acid concentration to account for dilutional effects. After cells were cultured for 72 h at 37° C., viability was measured by CellTiter-Glo (Promega) luminescence.

The subject of series [1] is corneal neovascularization. To be noted: rats; cited from earlier work.
The nature of a further series: physchem. To be noted: 37 °C, aqueous buffer, thermodynamic from solid.

As usually defined, the solubility is the concentration that dissolves in the medium under given conditions. A higher solubility goes with a readily soluble substance.

Description for physchem: To measure solubility, 5 mg of sunitinib malate or SPC complex was placed in microcentrifuge tubes with 1 mL of PBS. The samples were then placed on an orbital shaker (150 rpm) in an incubator at 37° C. After 7 days, samples were collected and centrifuged at 17,000 rcf for 30 min. The supernatant was collected, and concentrations were measured using HPLC (Shimadzu Prominence LC-20). Supernatant samples were mixed 1:10 with acetonitrile containing 0.1% trifluoroacetic acid. Acetonitrile and water was used as a mobile phase at a ratio of 55:45. Samples were eluted isocratically at a flow rate of 1 mL/min through a C18-reversed phase column at 40° C. UV absorbance was monitored at 431 nm.

`O=C(O)c1cc2ccccc2c(Cc2c(O)c(C(=O)O)cc3ccccc23)c1O` [Pamoic acid]: the “effect on primary mouse RGC survival compared to PBS” value in the series with primary mouse RGCs was “no detrimental effect”.

As to `CCN(CC)CCNC(=O)c1c(C)[nH]c(/C=C2\C(=O)Nc3ccc(F)cc32)c1C` [sunitinib malate, Sunitinib malate], in series [1], the “effect on corneal neovascularization after subconjunctival injection” value is recorded as “no effect on neovascularization”. In addition, the solubility at 7 days in the series “physchem” turned out to be 0.525 ± 0.063 mg/mL.
